Reference: patent publication US20260356840A1, “[1,2,4]TRIAZOLO[1,5-A]PYRIMIDINONE WRN INHIBITORS” (Nimbus Wadjet, Inc., priority 2023, published 2026)

Target: T1, human Werner helicase (Uniprot Q14191, amino acids 517-1235 with L1074F point mutation), WRN-BV08 (Homo sapiens, UniProt Q14191, L1074F)
T1 construct: Uniprot Q14191, amino acids 517-1235 with L1074F point mutation; TEV cleavable 8xHis tag (C, cleaved yes); made in house; host or cells: Sf9 insect cells (baculovirus, pFastBac)
Assay: WRN (BV08) ADP-Glo Assay
Type: biochemical
Protocol: DNA duplex was synthesized at BGI (Shenzhen, China) and was composed of strand 1 with the sequence 5′-[…]-3′ (SEQ ID NO.: 1) and strand 2 with the sequence 5′-[…]-3′ (SEQ ID NO.: 2). DNA strands were annealed by heating to 95 °C for 5 minutes followed by slow cooling to room temperature. […] DMSO (0.1 μl) was added to columns 12, rows A-H and column 24, rows I-P for the maximum signal control.
Where RLU=relative luminescence units, sample=signal in sample well, and MIN and MAX are the respective minimum and maximum signal controls. • Four-parameter IC50 fit equation:
Y=Bottom+(Top−Bottom)/(1+(IC50/X)^Hill Slope)
Where top and bottom are normally allowed to float but may be fixed at 100 or 0 respectively in a 3-parameter fit. Y is the % inhibition and X is the compound concentration.
Molecular Biology and virus production. […] The baculovirus from the expression plasmid WRN-BV08 was generated from transfection and amplification following the manufacturer's instructions.
Sf9 cells grown in SF900II media were infected with 1:200 WRN-BV08 P2 virus and incubated for protein expression for 72 h at 27 °C. The WRN protein was purified using the following protocol. The cell pellets were thawed and resuspended in buffer A (50 mM Tris, pH 7.5, 500 mM NaCl, 1 mM TCEP, 10% Glycerol) supplemented with 0.5% CHAPS, 1 mM [COMPOUND LEFT OUT], 1 μg/ml Leupeptin, 1 μg/ml Pepstatin, and the Pierce Universal Nuclease and cocktail tablet. Cleared lysates were loaded onto a Ni Sepharose™ excel column and washed with buffer A and bound protein was eluted with buffer A supplemented with 300 mM imidazole. The eluted protein was dialyzed against buffer A and digested by His-tagged TEV (1:5 ratio) overnight at 4 °C. […] Untagged WRN protein was eluted from the column with buffer A supplemented with 20 mM imidazole, dialyzed overnight into buffer B (50 mM Tris, pH 7.5, 1 mM TCEP, 10% Glycerol) supplemented with 150 mM NaCl and loaded onto a Heparin column. Proteins were eluted with a step gradient of buffer B supplemented with 150 mM, 200 mM, 300 mM and 500 mM NaCl.

T1 sequence (Q14191 517-1235 L1074F): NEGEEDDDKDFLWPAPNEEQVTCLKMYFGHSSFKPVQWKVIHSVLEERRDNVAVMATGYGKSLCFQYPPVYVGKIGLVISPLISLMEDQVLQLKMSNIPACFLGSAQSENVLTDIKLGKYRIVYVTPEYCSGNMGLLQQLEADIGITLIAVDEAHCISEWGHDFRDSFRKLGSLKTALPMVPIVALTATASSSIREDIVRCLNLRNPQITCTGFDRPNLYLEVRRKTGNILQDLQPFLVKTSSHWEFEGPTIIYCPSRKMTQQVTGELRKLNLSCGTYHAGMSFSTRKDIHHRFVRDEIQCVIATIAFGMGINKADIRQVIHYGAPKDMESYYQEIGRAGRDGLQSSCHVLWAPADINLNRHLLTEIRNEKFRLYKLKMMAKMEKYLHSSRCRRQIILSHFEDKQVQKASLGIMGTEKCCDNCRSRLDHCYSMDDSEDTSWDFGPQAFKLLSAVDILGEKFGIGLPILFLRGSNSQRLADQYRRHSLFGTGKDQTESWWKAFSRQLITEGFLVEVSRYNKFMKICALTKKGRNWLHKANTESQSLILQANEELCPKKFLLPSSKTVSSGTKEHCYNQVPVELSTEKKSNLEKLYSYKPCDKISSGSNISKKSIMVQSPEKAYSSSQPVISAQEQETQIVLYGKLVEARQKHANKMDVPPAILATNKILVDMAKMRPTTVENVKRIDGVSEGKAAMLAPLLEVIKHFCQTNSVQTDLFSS

SMILES	IC50 [nM]
CCc1c(N2CCN(C(=O)c3cnn(C)c3)CC2)c(=O)n2nc(-c3cc(OC)ncc3F)nc2n1CC(=O)Nc1ccc(C(F)(F)F)cc1Cl [Compound I-72, N-[2-chloro-4-(trifluoromethyl)phenyl]-2-[5-ethyl-2-(5-fluoro-2-methoxypyridin-4-yl)-6-[4-(1-methyl-1H-pyrazole-4-carbonyl)piperazin-1-yl]-7-oxo-4H,7H-[1,2,4]triazolo[1,5-a]pyrimidin-4-yl]acetamide]	5 to 50
CCc1c(N2CCN(C(=O)c3coc(C)n3)CC2)c(=O)n2nc(-c3ccnc(OC)c3)nc2n1CC(=O)Nc1ccc(C(F)(F)F)cc1Cl [Compound I-75, N-[2-chloro-4-(trifluoromethyl)phenyl]-2-[5-ethyl-2-(2-methoxypyridin-4-yl)-6-[4-(2-methyl-1,3-oxazole-4-carbonyl)piperazin-1-yl]-7-oxo-4H,7H-[1,2,4]triazolo[1,5-a]pyrimidin-4-yl]acetamide]	5 to 50
CCc1c(N2CCN(C(=O)c3cnn(C4CC4)c3)CC2)c(=O)n2nc(-c3ccnc(OC)c3)nc2n1CC(=O)Nc1ccc(C(F)(F)F)cc1Cl [Compound I-60, N-[2-chloro-4-(trifluoromethyl)phenyl]-2-{6-[4-(1-cyclopropyl-1H-pyrazole-4-carbonyl)piperazin-1-yl]-5-ethyl-2-(2-methoxypyridin-4-yl)-7-oxo-4H,7H-[1,2,4]triazolo[1,5-a]pyrimidin-4-yl}acetamide]	5 to 50
CCc1c(N2CCN(C(=O)CC(C)(C)O)CC2)c(=O)n2nc(C3=CCOCC3)nc2n1CC(=O)Nc1ccc(C(F)(F)F)cc1Cl [Compound I-40, N-[2-chloro-4-(trifluoromethyl)phenyl]-2-[2-(3,6-dihydro-2H-pyran-4-yl)-5-ethyl-6-[4-(3-hydroxy-3-methylbutanoyl)piperazin-1-yl]-7-oxo-4H,7H-[1,2,4]triazolo[1,5-a]pyrimidin-4-yl]acetamide]	50 to 100
CCc1c(N2CCN(C(=O)C(C)(C)CO)CC2)c(=O)n2nc(C3=CCOCC3)nc2n1CC(=O)Nc1ccc(C(F)(F)F)cc1Cl [Compound I-20, N-[2-chloro-4-(trifluoromethyl)phenyl]-2-[2-(3,6-dihydro-2H-pyran-4-yl)-5-ethyl-6-[4-(3-hydroxy-2,2-dimethylpropanoyl)piperazin-1-yl]-7-oxo-4H,7H-[1,2,4]triazolo[1,5-a]pyrimidin-4-yl]acetamide]	5 to 50

Now from value to molecule:

IC50 [nM]	SMILES
5 to 50	CCc1c(N2CCN(C(=O)c3cccc(C)c3O)CC2)c(=O)n2nc(C3=CCOCC3)nc2n1CC(=O)Nc1ccc(C(F)(F)F)cc1Cl [Compound I-3, N-[2-chloro-4-(trifluoromethyl)phenyl]-2-[2-(3,6-dihydro-2H-pyran-4-yl)-5-ethyl-6-[4-(2-hydroxy-3-methylbenzoyl)piperazin-1-yl]-7-oxo-4H,7H-[1,2,4]triazolo[1,5-a]pyrimidin-4-yl]acetamide]
5 to 50	CCc1c(N2CCN(C(=O)c3c(C)cnc(C)c3O)CC2)c(=O)n2nc(C3=CCOCC3)nc2n1CC(=O)Nc1ccc(C(F)(F)F)cc1Cl [Compound I-13, N-[2-chloro-4-(trifluoromethyl)phenyl]-2-[2-(3,6-dihydro-2H-pyran-4-yl)-5-ethyl-6-[4-(3-hydroxy-2,5-dimethylpyridine-4-carbonyl)piperazin-1-yl]-7-oxo-4H,7H-[1,2,4]triazolo[1,5-a]pyrimidin-4-yl]acetamide]
5 to 50	CCc1c(N2CCN(C(=O)c3cnc(C)cc3O)CC2)c(=O)n2nc(C3=CCOCC3)nc2n1CC(=O)Nc1ccc(C(F)(F)F)cc1Cl [Compound I-2, N-[2-chloro-4-(trifluoromethyl)phenyl]-2-[2-(3,6-dihydro-2H-pyran-4-yl)-5-ethyl-6-[4-(4-hydroxy-6-methylpyridine-3-carbonyl)piperazin-1-yl]-7-oxo-4H,7H-[1,2,4]triazolo[1,5-a]pyrimidin-4-yl]acetamide]
